From patent publication US8703768B2, “Nitrogen containing heteroaryl compounds” (Hoffmann-La Roche Inc., priority 2010, dated 2014)

Target: human PDE10A (Homo sapiens (Human), UniProt Q9Y233)
Experiment: human PDE10A full length Scintillation Proximity Assay (SPA)
Format: biochemical
Conditions: 50 nM cGMP and 50 nM [3H]-cGMP, 20 minutes at room temperature; read-out: PDE10A inhibition IC50
In short: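 Radiometric SPA read-out: after 20 min at room temperature with [^3H]-cGMP/cGMP substrate, zinc sulphate (18 mM) bead stop reagent added and counts read after 1 h. Non-specific signal defined without enzyme; full-length protein used.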

Sequence of human PDE10A (Q9Y233 other isoform, or with tags, fused parts or gaps): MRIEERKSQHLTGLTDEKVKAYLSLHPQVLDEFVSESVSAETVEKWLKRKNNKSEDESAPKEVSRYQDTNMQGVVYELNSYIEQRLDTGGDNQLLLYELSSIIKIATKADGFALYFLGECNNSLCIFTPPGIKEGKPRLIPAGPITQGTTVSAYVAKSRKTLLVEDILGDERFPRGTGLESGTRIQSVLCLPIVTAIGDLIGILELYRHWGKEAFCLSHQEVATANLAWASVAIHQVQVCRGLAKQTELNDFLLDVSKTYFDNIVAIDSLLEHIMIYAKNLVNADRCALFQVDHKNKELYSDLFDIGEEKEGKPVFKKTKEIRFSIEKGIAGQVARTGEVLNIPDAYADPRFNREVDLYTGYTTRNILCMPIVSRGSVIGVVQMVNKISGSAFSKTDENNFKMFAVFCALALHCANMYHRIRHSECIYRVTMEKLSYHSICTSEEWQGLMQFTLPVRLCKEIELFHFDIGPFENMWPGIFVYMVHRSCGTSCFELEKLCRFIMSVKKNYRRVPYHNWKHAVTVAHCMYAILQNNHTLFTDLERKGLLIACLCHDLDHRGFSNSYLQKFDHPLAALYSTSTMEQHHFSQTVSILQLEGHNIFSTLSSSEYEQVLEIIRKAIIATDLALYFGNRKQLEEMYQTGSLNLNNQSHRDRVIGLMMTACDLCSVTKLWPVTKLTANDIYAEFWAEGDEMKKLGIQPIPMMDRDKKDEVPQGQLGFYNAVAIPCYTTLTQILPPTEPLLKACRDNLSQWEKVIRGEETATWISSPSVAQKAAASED

IC50 [nM]	Compound
4.1	CNC(=O)c1c(NC(=O)c2nc(N3CCOCC3)cnc2Nc2cncnc2)cnn1C [Example 297, 6-Morpholin-4-yl-3-(pyrimidin-5-ylamino)-pyrazine-2-carboxylic acid (1-methyl-5-methylcarbamoyl-1H-pyrazol-4-yl)-amide]
7.8	CN(C)C(=O)c1cc(F)ccc1NC(=O)c1nc(C2CC2)cnc1Nc1cncnc1 [Example 298, 6-Cyclopropyl-3-(pyrimidin-5-ylamino)-pyrazine-2-carboxylic acid (2-dimethylcarbamoyl-4-fluoro-phenyl)-amide]
0.3	CNC(=O)c1c(F)cc(F)cc1NC(=O)c1nc(C2CC2)cnc1Nc1cncnc1 [Example 299, 6-Cyclopropyl-3-(pyrimidin-5-ylamino)-pyrazine-2-carboxylic acid (3,5-difluoro-2-methylcarbamoyl-phenyl)-amide]
16.7	CN(C)C(=O)c1c(F)cc(F)cc1NC(=O)c1nc(C2CC2)cnc1Nc1cncnc1 [Example 300, 6-Cyclopropyl-3-(pyrimidin-5-ylamino)-pyrazine-2-carboxylic acid (2-dimethylcarbamoyl-3,5-difluoro-phenyl)-amide]
0.4	CC(C)(O)CNC(=O)c1ccc(F)cc1NC(=O)c1nc(C2CC2)cnc1Nc1cncnc1 [Example 301, 6-Cyclopropyl-3-(pyrimidin-5-ylamino)-pyrazine-2-carboxylic acid [5-fluoro-2-(2-hydroxy-2-methyl-propylcarbamoyl)-phenyl]-amide]
1	O=C(Nc1cc(F)ccc1C(=O)N1CCC1)c1nc(C2CC2)cnc1Nc1cncnc1 [Example 302, 6-Cyclopropyl-3-(pyrimidin-5-ylamino)-pyrazine-2-carboxylic acid [2-(azetidine-1-carbonyl)-5-fluoro-phenyl]-amide]
368	CN(C)C(=O)c1cccc(F)c1NC(=O)c1nc(C2CC2)cnc1Nc1cncnc1 [Example 303, 6-Cyclopropyl-3-(pyrimidin-5-ylamino)-pyrazine-2-carboxylic acid (2-dimethylcarbamoyl-6-fluoro-phenyl)-amide]
143	CNC(=O)c1c(NC(=O)c2nc(N3CCC3)cnc2Nc2cncnc2)cnn1C [Example 304, 6-Azetidin-1-yl-3-(pyrimidin-5-ylamino)-pyrazine-2-carboxylic acid (1-methyl-5-methylcarbamoyl-1H-pyrazol-4-yl)-amide]
4.5	O=C(Nc1ccc(F)cc1C(=O)N1CCC1)c1nc(C2CC2)cnc1Nc1cncnc1 [Example 305, 6-Cyclopropyl-3-(pyrimidin-5-ylamino)-pyrazine-2-carboxylic acid [2-(azetidine-1-carbonyl)-4-fluoro-phenyl]-amide]
1.4	CC(C)(O)CNC(=O)c1cc(F)ccc1NC(=O)c1nc(C2CC2)cnc1Nc1cncnc1 [Example 306, 6-Cyclopropyl-3-(pyrimidin-5-ylamino)-pyrazine-2-carboxylic acid [4-fluoro-2-(2-hydroxy-2-methyl-propylcarbamoyl)-phenyl]-amide]
68.6	CNC(=O)c1c(F)cccc1NC(=O)c1nc(C2CC2)cnc1Nc1cncnc1 [Example 307, 6-Cyclopropyl-3-(pyrimidin-5-ylamino)-pyrazine-2-carboxylic acid (3-fluoro-2-methylcarbamoyl-phenyl)-amide]
0.9	CN(C)C(=O)c1c(F)cccc1NC(=O)c1nc(C2CC2)cnc1Nc1cncnc1 [Example 308, 6-Cyclopropyl-3-(pyrimidin-5-ylamino)-pyrazine-2-carboxylic acid (2-dimethylcarbamoyl-3-fluoro-phenyl)-amide]
1.1	O=C(Nc1cccc(F)c1C(=O)N1CCC1)c1nc(C2CC2)cnc1Nc1cncnc1 [Example 309, 6-Cyclopropyl-3-(pyrimidin-5-ylamino)-pyrazine-2-carboxylic acid [2-(azetidine-1-carbonyl)-3-fluoro-phenyl]-amide]
20.5	CCN(C)c1cnc(Nc2cncnc2)c(C(=O)Nc2cnn(C)c2C(=O)NC)n1 [Example 311, 6-(Ethyl-methyl-amino)-3-(pyrimidin-5-ylamino)-pyrazine-2-carboxylic acid (1-methyl-5-methylcarbamoyl-1H-pyrazol-4-yl)-amide]
0.8	CNC(=O)c1cc(F)ccc1NC(=O)c1nc(C2CC2)cnc1Nc1cncnc1 [Example 312, 6-Cyclopropyl-3-(pyrimidin-5-ylamino)-pyrazine-2-carboxylic acid (4-fluoro-2-methylcarbamoyl-phenyl)-amide]
52	CN(C)CCNC(=O)c1c(NC(=O)c2nc(C3CC3)cnc2Nc2cncnc2)cnn1C [Example 313, 6-Cyclopropyl-3-(pyrimidin-5-ylamino)-pyrazine-2-carboxylic acid [5-(2-dimethylamino-ethylcarbamoyl)-1-methyl-1H-pyrazol-4-yl]-amide]

IC50 [nM]	Compound
34.3	CNC(=O)c1c(NC(=O)c2nc(C3CC3)ncc2Nc2cncnc2)cnn1C [Example 314, 2-Cyclopropyl-5-(pyrimidin-5-ylamino)-pyrimidine-4-carboxylic acid (1-methyl-5-methylcarbamoyl-1H-pyrazol-4-yl)-amide]
11.1	CN1CC(NC(=O)c2c(NC(=O)c3nc(C4CC4)cnc3Nc3cncnc3)cnn2C)C1 [Example 315, 6-Cyclopropyl-3-(pyrimidin-5-ylamino)-pyrazine-2-carboxylic acid [1-methyl-5-(1-methyl-azetidin-3-ylcarbamoyl)-1H-pyrazol-4-yl]-amide]
24.1	CN(C)C(=O)c1c(NC(=O)c2nc(C3CC3)cnc2Nc2cncnc2)ccc(F)c1F [Example 316, 6-Cyclopropyl-3-(pyrimidin-5-ylamino)-pyrazine-2-carboxylic acid (2-dimethylcarbamoyl-3,4-difluoro-phenyl)-amide]
2.7	CNC(=O)c1c(NC(=O)c2nc(C3CC3)cnc2Nc2cncnc2)ccc(F)c1F [Example 317, 6-Cyclopropyl-3-(pyrimidin-5-ylamino)-pyrazine-2-carboxylic acid (3,4-difluoro-2-methylcarbamoyl-phenyl)-amide]
4.6	CC(C)(O)CNC(=O)c1c(NC(=O)c2nc(C3CC3)cnc2Nc2cncnc2)ccc(F)c1F [Example 318, 6-Cyclopropyl-3-(pyrimidin-5-ylamino)-pyrazine-2-carboxylic acid [3,4-difluoro-2-(2-hydroxy-2-methyl-propylcarbamoyl)-phenyl]-amide]
15.5	O=C(Nc1ccc(F)c(F)c1C(=O)N1CCC1)c1nc(C2CC2)cnc1Nc1cncnc1 [Example 319, 6-Cyclopropyl-3-(pyrimidin-5-ylamino)-pyrazine-2-carboxylic acid [2-(azetidine-1-carbonyl)-3,4-difluoro-phenyl]-amide]
86.3	O=C(Nc1c(C(=O)N2CCC2)ccc(F)c1F)c1nc(C2CC2)cnc1Nc1cncnc1 [Example 320, 6-Cyclopropyl-3-(pyrimidin-5-ylamino)-pyrazine-2-carboxylic acid [6-(azetidine-1-carbonyl)-2,3-difluoro-phenyl]-amide]
0.6	CCOC(=O)CCc1ccc(NC(=O)c2nc(C3CC3)cnc2Nc2cncnc2)c(C(=O)NC)c1 [Example 321, 3-(4-{[6-Cyclopropyl-3-(pyrimidin-5-ylamino)-pyrazine-2-carbonyl]-amino}-3-methylcarbamoyl-phenyl)-propionic acid ethyl ester]
1.7	CNC(=O)COc1ccc(NC(=O)c2nc(C3CC3)cnc2Nc2cncnc2)c(C(=O)NC)c1 [Example 322, 6-Cyclopropyl-3-(pyrimidin-5-ylamino)-pyrazine-2-carboxylic acid (2-methylcarbamoyl-4-methylcarbamoylmethoxy-phenyl)-amide]
35.9	O=C(Nc1cc(F)cc(F)c1C(=O)N1CCC1)c1nc(C2CC2)cnc1Nc1cncnc1 [Example 323, 6-Cyclopropyl-3-(pyrimidin-5-ylamino)-pyrazine-2-carboxylic acid [2-(azetidine-1-carbonyl)-3,5-difluoro-phenyl]-amide]
1.1	CC(C)(O)CNC(=O)c1c(F)cc(F)cc1NC(=O)c1nc(C2CC2)cnc1Nc1cncnc1 [Example 324, 6-Cyclopropyl-3-(pyrimidin-5-ylamino)-pyrazine-2-carboxylic acid [3,5-difluoro-2-(2-hydroxy-2-methyl-propylcarbamoyl)-phenyl]-amide]
335	CN(C)C(=O)c1ccc(F)c(F)c1NC(=O)c1nc(C2CC2)cnc1Nc1cncnc1 [Example 325, 6-Cyclopropyl-3-(pyrimidin-5-ylamino)-pyrazine-2-carboxylic acid (6-dimethylcarbamoyl-2,3-difluoro-phenyl)-amide]
2.7	CC(C)(O)CNC(=O)c1ccc(F)c(F)c1NC(=O)c1nc(C2CC2)cnc1Nc1cncnc1 [Example 326, 6-Cyclopropyl-3-(pyrimidin-5-ylamino)-pyrazine-2-carboxylic acid [2,3-difluoro-6-(2-hydroxy-2-methyl-propylcarbamoyl)-phenyl]-amide]
0.4	CNC(=O)c1cc(CCC(=O)O)ccc1NC(=O)c1nc(C2CC2)cnc1Nc1cncnc1 [Example 328, 3-(4-{[6-Cyclopropyl-3-(pyrimidin-5-ylamino)-pyrazine-2-carbonyl]-amino}-3-methylcarbamoyl-phenyl)-propionic acid]
2.9	CC(C)c1ncc(Nc2cncnc2)c(C(=O)Nc2cccnc2C(=O)NCC(C)(C)O)n1 [Example 329, 2-Isopropyl-5-(pyrimidin-5-ylamino)-pyrimidine-4-carboxylic acid [2-(2-hydroxy-2-methyl-propylcarbamoyl)-pyridin-3-yl]-amide]
1.1	CC(C)(O)CNC(=O)c1ncccc1NC(=O)c1nc(C(C)(C)C)ncc1Nc1cncnc1 [Example 330, 2-tert-Butyl-5-(pyrimidin-5-ylamino)-pyrimidine-4-carboxylic acid [2-(2-hydroxy-2-methyl-propylcarbamoyl)-pyridin-3-yl]-amide]
